These are literature values, as cited in publication PMC6376154 (International Journal for Parasitology: Drugs and Drug …, 2019).

Read-outs that look alike come from different tables or passages of the source.

In this series the test system is P. falciparum 3D7 asexual blood stage. To be noted: cited from earlier work.
[1] abbreviates: MMV Malaria Box data sheet (supplement mmc2.xls), ref MMV data sheet.
[2] abbreviates: MMV Malaria Box data sheet (supplement mmc2.xls), ref MMV data sheet, read-out: EC50_nM.
Setting [3] is: MMV Malaria Box sheet, ref MMV data sheets.
Where [4] appears, read: MMV Malaria Box sheet, ref MMV data sheets, read-out: EC50_nM.
[5] abbreviates: source StJude, ref ChEMBL_NTD, read-out: CHEMBL EC50.
Setting [6] is: ChEMBL-NTD value per source (GNF, GSK, StJude), several values in a cell follow the order of the sources, read-out: CHEMBL EC50.
[7] abbreviates: MMV Malaria Box data sheet, ref MMV data sheets.
Setting [8] is: MMV Malaria Box data sheet, ref MMV data sheets, read-out: EC50_nM.
The mark [9] stands for this setting: source GNF, ref ChEMBL_NTD, read-out: CHEMBL EC50.
The mark [10] stands for this setting: source GSK, ref ChEMBL_NTD, read-out: CHEMBL EC50.
Setting [11] is: value(s) per source (GSK, GNF, StJude), separated by semicolon, ref ChEMBL-NTD, read-out: CHEMBL EC50.

Turning to `CCN(CC)CCn1c(=N)n(CC(O)c2ccc(Cl)c(Cl)c2)c2ccccc21` (stereo not shown) [MMV000248], the “percent_inh @ 5 uM” value under setting [1] is given as 97%. The EC50 under setting [2] was 718 nM.
Turning to `CCOc1ccc(Nc2c3ccccc3nc3ccccc23)cc1` [MMV000304], under setting [3], the “percent_inh @ 5 uM” value is listed as 97%. Besides, the EC50 runs as follows: under setting [4], 1060 nM; under setting [5], 5720 nM.
Consider `Cc1ccc2nc(C)cc(Nc3cccc(C(F)(F)F)c3)c2c1` [MMV000326], for which, under setting [3], the “percent_inh @ 5 uM” value is 98%. Besides, the EC50 reads like this: under setting [4], 1170 nM; under setting [5], 879 nM.
As to `CCn1c2c(c(=N)c3c1CCC3)CCCC2` [MMV000340], the EC50 under setting [6] was 3120 nM.
On to `CC(C)(C)c1ccc2c(c1)CN(Cc1ccc(Cl)cc1)CO2` [MMV000442], for which the “percent_inh @ 5 uM” value under setting [3] was 98%. Also, the EC50 by setting is: under setting [4], 362 nM; under setting [5], 255 nM.
As for `CCOc1ccc2c(c1)CN(Cc1ccc(Cl)cc1)CO2` [MMV000443], the “percent_inh @ 5 uM” value under setting [3] is given as 97%. Moreover, the EC50 under setting [4] is 439 nM and the EC50 under setting [5] was 1490 nM.
`CCCCCn1c(=N)n(CC(O)COc2cccc(C)c2)c2ccccc21` (stereo not shown) [MMV000444]: under setting [3], the “percent_inh @ 5 uM” value is 96%. The EC50 under setting [5] was 2650 nM.
As for `CCCCCCn1c(=N)n(CC(O)COc2cccc(C)c2)c2ccccc21` (stereo not shown) [MMV000445], under setting [3], the “percent_inh @ 5 uM” value is 98%. Moreover, the EC50 by setting is: under setting [4], 1140 nM; under setting [5], 1970 nM.
`CN(C)CCCNc1c2ccccc2nc2ccccc12` [MMV000448]: the “percent_inh @ 5 uM” value under setting [7] was 95%. The EC50 by setting is: under setting [8], 235 nM; under setting [9], 32.7 nM; under setting [10], 1040 nM; under setting [5], 531 nM.
Consider `CCOc1cc2c(cc1OCC)C(c1cc(Cl)c(O)c(OCC)c1)NCC2` (stereo not shown) [MMV000481], for which the “percent_inh @ 5 uM” value under setting [3] is given as 96%. Moreover, the EC50 runs as follows: under setting [4], 1330 nM; under setting [5], 3010 nM.
As for `CCOc1cc2c(cc1OCC)C(c1cc(C)c(O)c(C)c1)NCC2` (stereo not shown) [MMV000483], the “percent_inh @ 5 uM” value under setting [3] is reported as 97%. In addition, the EC50 under setting [4] was 683 nM and the EC50 under setting [5] is 1830 nM.
On to `CCN(CC)c1cc(C)c2cc(NC(=O)c3cccc(OC)c3)ccc2n1` [MMV000498], for which, under setting [1], the “percent_inh @ 5 uM” value is on record as 97%. Under setting [11], the EC50 was 4770 nM.
Turning to `CCCN(CCC)CCCNC(=O)c1cc2c(-c3ccc(OC)c(OC)c3)nn(C)c2s1` [MMV000561], the “percent_inh @ 5 uM” value under setting [1] was 98%. The EC50 was 1430 nM under setting [2] and 4040 nM under setting [11].
Turning to `COc1ccc(C2Sc3ccccc3N=C3C2=C(O)c2ccccc23)cc1` (stereo not shown) [MMV000563], the “percent_inh @ 5 uM” value under setting [7] is 96%. For the same molecule, the EC50 under setting [8] was 845 nM and the EC50 under setting [9] is 238 nM.
Take `CCc1ccc(Nc2cc(C)c3ccc(O)cc3n2)cc1` [MMV000570]: the “percent_inh @ 5 uM” value under setting [7] is on record as 98%. Further, the EC50 under setting [8] is 194 nM and the EC50 under setting [5] is 732 nM.
With `COc1ccc(-c2cc(=O)oc3c4c(ccc23)OCN(Cc2ccc(F)cc2)C4)cc1` [MMV000604], under setting [3], the “percent_inh @ 5 uM” value is reported as 96%. For the same molecule, the EC50 by setting is: under setting [4], 735 nM; under setting [5], 5210 nM.
As for `COc1ccc(C(O)(CCC(C)C)C(CN2CCOCC2)c2ccc(Cl)cc2)cc1` (stereo not shown) [MMV000617], the EC50 under setting [6] was 4610 nM.
`CCCCC(O)(c1ccc(Cl)cc1)C(CN1CCOCC1)c1ccc(Cl)cc1` (stereo not shown) [MMV000619]: the “percent_inh @ 5 uM” value under setting [3] is 98%. For the same molecule, the EC50 under setting [4] was 1380 nM and the EC50 under setting [5] is 4010 nM.
Take `CC(O)(c1ccc(Cl)cc1)C(CN1CCCCC1)c1ccccc1` (stereo not shown) [MMV000620]: the “percent_inh @ 5 uM” value under setting [7] is 94%. Moreover, the EC50 under setting [5] is 916 nM.
For `CCCCCCC(O)(c1ccc(F)cc1)C(CN1CCOCC1)c1ccccc1` (stereo not shown) [MMV000621], under setting [3], the “percent_inh @ 5 uM” value is reported as 93%. For the same molecule, under setting [5], the EC50 was 3180 nM.
Turning to `CC1CCCCN1CCCNC(=O)c1ccc2c(c1)sc1nc(-c3ccc(F)cc3)cn12` (stereo not shown) [MMV000634], the “percent_inh @ 5 uM” value under setting [7] is 98%. The EC50 reads like this: under setting [8], 648 nM; under setting [5], 634 nM.
Take `COc1ccc(NC(=O)C2c3ccccc3C(=O)N(CC(C)C)C2c2cccs2)cc1Cl` (stereo not shown) [MMV000642]: the “percent_inh @ 5 uM” value under setting [7] is 100%. Moreover, the EC50 under setting [8] was 20.2 nM, the EC50 under setting [9] was 91.4 nM and the EC50 under setting [5] was 119 nM.
In the case of `COc1ccccc1CNC(=O)C1c2ccccc2C(=O)N(CC(C)C)C1c1cccs1` (stereo not shown) [MMV000648], the “percent_inh @ 5 uM” value under setting [1] is recorded as 97%. Further, the EC50 under setting [11] was 3160 nM.
With `CCOc1ccccc1CNC(=O)C1c2ccccc2C(=O)N(CC(C)C)C1c1cccs1` (stereo not shown) [MMV000653], the “percent_inh @ 5 uM” value under setting [7] was 97%. Besides, the EC50 under setting [8] was 1320 nM and the EC50 under setting [5] is 1430 nM.
Consider `COc1ccc(NC(=O)C2c3ccccc3C(=O)N(CC(C)C)C2c2cccs2)cc1` (stereo not shown) [MMV000662], for which, under setting [7], the “percent_inh @ 5 uM” value is reported as 100%. For the same molecule, the EC50 is 36.7 nM under setting [8] and 102 nM under setting [5].
On to `Cc1ccc(C2CC(C(F)(F)F)n3nc(C(=O)N4CCN(C(c5ccccc5)c5ccccc5)CC4)cc3N2)cc1` (stereo not shown) [MMV000699], for which the “percent_inh @ 5 uM” value under setting [3] is reported as 98%. Besides, the EC50 reads like this: under setting [4], 454 nM; under setting [5], 668 nM.
Take `Cc1ccnc(NC(c2cccc(OCc3ccccc3)c2)c2ccc3cccnc3c2O)c1` (stereo not shown) [MMV000720]: the “percent_inh @ 5 uM” value under setting [3] was 97%. Further, the EC50 by setting is: under setting [4], 1020 nM; under setting [10], 864 nM; under setting [5], 1810 nM.
Regarding `Oc1c(CN2CCN(c3ccccc3F)CC2)cc(Br)c2cccnc12` [MMV000760], the “percent_inh @ 5 uM” value under setting [3] is 91%. Under setting [5], the EC50 was 3760 nM.
For `CCCOCc1cc(CN2CCN(c3cccc(Cl)c3)CC2)c(O)c2ncccc12` [MMV000787], the EC50 under setting [6] is 1100 nM.
In the case of `CC(C)OCc1cc(CN2CCN(c3cccc(Cl)c3)CC2)c(O)c2ncccc12` [MMV000788], the “percent_inh @ 5 uM” value under setting [1] is reported as 98%. The EC50 is 697 nM under setting [2] and 941 nM under setting [11].
On to `OC(CNCc1ccccc1)Cn1c2ccccc2c2ccccc21` (stereo not shown) [MMV000839], for which, under setting [3], the “percent_inh @ 5 uM” value is reported as 95%. Also, the EC50 is, setting by setting: under setting [4], 1080 nM; under setting [5], 3760 nM.
Turning to `OC(CNC1CCCC1)Cn1c2ccccc2c2ccccc21` (stereo not shown) [MMV000848], the “percent_inh @ 5 uM” value under setting [1] is listed as 97%. Besides, the EC50 is 660 nM under setting [2] and 1080 nM under setting [11].
On to `Cc1ccc(NC(=O)Nc2cccc(Cl)c2)cc1F` [MMV000911], for which, under setting [1], the “percent_inh @ 5 uM” value is recorded as 52%. Besides, the EC50 under setting [11] was 15000 nM.
With `COc1ccc2c(c1OC)C(=O)N1c3ccccc3N=C(c3ccc(C)cc3)CC21` (stereo not shown) [MMV000917], the “percent_inh @ 5 uM” value under setting [3] is 93%. Besides, the EC50 runs as follows: under setting [4], 1240 nM; under setting [5], 2530 nM.
With `COc1ccc(Nc2nc(NCc3ccccc3)c3ccccc3n2)cc1` [MMV000963], the EC50 by setting is: under setting [4], 589 nM; under setting [9], 212 nM; under setting [5], 1310 nM.
For the molecule `O=C1CC(O)(C(F)(F)C(F)(F)F)Oc2ccccc21` (stereo not shown) [MMV000972], the “percent_inh @ 5 uM” value under setting [3] is given as 95%. Further, under setting [5], the EC50 was 2570 nM.
On to `Cc1ccc(Nc2nc(NCCO)c3ccccc3n2)cc1C` [MMV001038], for which the EC50 by setting is: under setting [8], 428 nM; under setting [9], 175 nM; under setting [5], 843 nM.
Turning to `CC(C)c1ccc(CNCC(O)c2ccccc2)cc1` (stereo not shown) [MMV001049], the “percent_inh @ 5 uM” value under setting [3] was 96%. The EC50 by setting is: under setting [4], 1260 nM; under setting [5], 1350 nM.
